Read-outs that look alike come from different tables or passages of the source. Residues, ends and D or L forms follow the SMILES beside them. *: point of attachment. Arachidoyl = CCCCCCCCCCCCCCCCCCCC(=O)*; Stearoyl = CCCCCCCCCCCCCCCCCC(=O)*; Palmitoyl = CCCCCCCCCCCCCCCC(=O)*
Experiments:
[1] = in vitro; conditions: dog
[2] = tested on: influenza A/Puerto Rico/8/34 (H1N1); conditions: /Puerto Rico/8/34, 24 h
[3] = tested on: clinical isolate 699 (H3 subtype); experiment: microbe, parasite or virus in culture; type: cell-based; conditions: Influenza A virus, read-out: IC50 ± SD, H3 (699)
[4] = tested on: influenza A/Aichi/2/68 (H3N2); experiment: microbe, parasite or virus in culture; type: cell-based; conditions: H3N2, read-out: IC50 ± SD, H3N2
[5] = tested on: influenza B virus; experiment: microbe, parasite or virus in culture; type: cell-based; conditions: read-out: IC50 ± SD, B
[6] = tested on: clinical isolate 690 (H3 subtype); experiment: microbe, parasite or virus in culture; type: cell-based; conditions: Influenza A virus, read-out: IC50 ± SD, H3 (690)
[7] = tested on: influenza A/Puerto Rico/8/34 (H1N1); experiment: microbe, parasite or virus in culture; conditions: H1N1, MDCK, read-out: IC50 ± SD

| SMILES | CC50 at 48 h [1] [µM] | IC50 [2] [µM] | also measured |
| --- | --- | --- | --- |
| CCCCCCCCCCCCCCCC(=O)N[C@@H](CCCCN)C(=O)N[C@@H](CCCCN)C(=O)N[C@@H](Cc1c[nH]c2ccccc12)C(=O)N[C@@H](CCCCN)C(=O)NCC(=O)NCC(=O)NCC(=O)N[C@@H](C)C(=O)N[C@@H](CCCNC(=N)N)C(=O)N[C@@H](CC(C)C)C(=O)N1CCC[C@H]1C(=O)N[C@@H](CCCNC(=N)N)C(N)=O [C16-Hp-GGG-Jp, C16-KKWKGGGARLPR] (Palmitoyl-KKWKGGGARLPR-NH2) | > 200 | 8.05 ± 0.52 | – |
| CCCCCCCCCCCCCCCC(=O)N[C@@H](CCCCN)C(=O)N[C@@H](CCCCN)C(=O)N[C@@H](Cc1c[nH]c2ccccc12)C(=O)N[C@@H](CCCCN)C(=O)N[C@@H](C)C(=O)N[C@@H](CCCNC(=N)N)C(=O)N[C@@H](CC(C)C)C(=O)N1CCC[C@H]1C(=O)N[C@@H](CCCNC(=N)N)C(N)=O [C16-Hp-Jp, C16-KKWKARLPR] (Palmitoyl-KKWKARLPR-NH2) | > 200 | 2.48 ± 0.24 | – |
| CCCCCCCCCCCCCCCC(=O)N[C@@H](C)C(=O)N[C@@H](CCCNC(=N)N)C(=O)N[C@@H](CC(C)C)C(=O)N1CCC[C@H]1C(=O)N[C@@H](CCCNC(=N)N)C(=O)NCC(=O)NCC(=O)NCC(=O)N[C@@H](CCCCN)C(=O)N[C@@H](CCCCN)C(=O)N[C@@H](Cc1c[nH]c2ccccc12)C(=O)N[C@@H](CCCCN)C(N)=O [C16-Jp-GGG-Hp, C16-ARLPRGGGKKWK] (Palmitoyl-ARLPRGGGKKWK-NH2) | > 200 | 6.79 ± 0.17 | – |
| CCCCCCCCCCCCCCCC(=O)N[C@@H](C)C(=O)N[C@@H](CCCNC(=N)N)C(=O)N[C@@H](CC(C)C)C(=O)N1CCC[C@H]1C(=O)N[C@@H](CCCNC(=N)N)C(=O)N[C@@H](CCCCN)C(=O)N[C@@H](CCCCN)C(=O)N[C@@H](Cc1c[nH]c2ccccc12)C(=O)N[C@@H](CCCCN)C(N)=O [C16-Jp-Hp, C16-ARLPRKKWK] (Palmitoyl-ARLPRKKWK-NH2) | > 200 | 1.29 ± 0.4 | – |
| CCCCCCCCCCCCCCCCCC(=O)N[C@@H](CCCCN)C(=O)N[C@@H](CCCCN)C(=O)N[C@@H](Cc1c[nH]c2ccccc12)C(=O)N[C@@H](CCCCN)C(=O)NCC(=O)NCC(=O)NCC(=O)N[C@@H](C)C(=O)N[C@@H](CCCNC(=N)N)C(=O)N[C@@H](CC(C)C)C(=O)N1CCC[C@H]1C(=O)N[C@@H](CCCNC(=N)N)C(N)=O [C18-Hp-GGG-Jp, C18-KKWKGGGARLPR] (Stearoyl-KKWKGGGARLPR-NH2) | > 200 | 6.99 ± 2 | – |
| CCCCCCCCCCCCCCCCCC(=O)N[C@@H](C)C(=O)N[C@@H](CCCNC(=N)N)C(=O)N[C@@H](CC(C)C)C(=O)N1CCC[C@H]1C(=O)N[C@@H](CCCNC(=N)N)C(=O)NCC(=O)NCC(=O)NCC(=O)N[C@@H](CCCCN)C(=O)N[C@@H](CCCCN)C(=O)N[C@@H](Cc1c[nH]c2ccccc12)C(=O)N[C@@H](CCCCN)C(N)=O [C18-Jp-GGG-Hp, C18-ARLPRGGGKKWK] (Stearoyl-ARLPRGGGKKWK-NH2) | > 200 | 5.09 ± 0.35 | – |
| CCCCCCCCCCCCCCCCCCCC(=O)N[C@@H](CCCCN)C(=O)N[C@@H](CCCCN)C(=O)N[C@@H](Cc1c[nH]c2ccccc12)C(=O)N[C@@H](CCCCN)C(=O)NCC(=O)NCC(=O)NCC(=O)N[C@@H](C)C(=O)N[C@@H](CCCNC(=N)N)C(=O)N[C@@H](CC(C)C)C(=O)N1CCC[C@H]1C(=O)N[C@@H](CCCNC(=N)N)C(N)=O [C20-Hp-GGG-Jp, C20-KKWKGGGARLPR] (Arachidoyl-KKWKGGGARLPR-NH2) | – | 5.22 ± 0.37 | CC50: > 200 µM |
| CCCCCCCCCCCCCCCCCCCC(=O)N[C@@H](C)C(=O)N[C@@H](CCCNC(=N)N)C(=O)N[C@@H](CC(C)C)C(=O)N1CCC[C@H]1C(=O)N[C@@H](CCCNC(=N)N)C(=O)NCC(=O)NCC(=O)NCC(=O)N[C@@H](CCCCN)C(=O)N[C@@H](CCCCN)C(=O)N[C@@H](Cc1c[nH]c2ccccc12)C(=O)N[C@@H](CCCCN)C(N)=O [C20-Jp-GGG-Hp, C20-ARLPRGGGKKWK] (Arachidoyl-ARLPRGGGKKWK-NH2) | – | 4.04 ± 0.02 | CC50: > 200 µM |
| NC(=O)c1ncn([C@@H]2O[C@H](CO)[C@@H](O)[C@H]2O)n1 [Ribavirin, ribavirin] | – | – | IC50 [3]: 4.92 ± 1.45 µM; IC50 [4]: 24.9 ± 1.1 µM; IC50 [5]: 6.71 ± 0.93 µM; IC50 [6]: 8.47 ± 3.01 µM; IC50 [7]: 12.85 ± 0.08 µM |
